Assay results from publication PMC8743659, “C1632 suppresses the migration and proliferation of non‐small‐cell lung cancer cells involving LIN28 and FGFR1 pathway” (Journal of Cellular and Molecular Medicine, 2021).

Assays:
FGFR1 = test: Western blot of FGFR1 signalling in NSCLC cells; type: cell-based, human; settings: A549 and A549R cells, C1632 5 days, dose-dependent
Protocol: The total cell protein was extracted and denaturized at 95°C for 10 min. Samples were separated in SDS‐PAGE gel, then transferred to a PVDF membrane. […] Blots were probed with relevant primary antibodies against FGFR1 (CST), p‐FGFR1 (CST), MAPK (CST), p‐MAPK (CST), FAK (CST), p‐FAK (CST), MMP‐9 (CST), LIN28B (CST), GAPDH (CST), and β‐actin (proteintech) overnight at 4°C, respectively. Then the lanes were detected with HRP‐conjugated secondary antibodies and visualized using WESTAR SUPERNOVA kit ([…]).

[1] = system: matrix metalloproteinase-9 (MMP-9); test: Western blot of MMP-9; type: cell-based, human; settings: A549 and A549R cells, 5 days
Protocol: The total cell protein was extracted and denaturized at 95°C for 10 min. Samples were separated in SDS‐PAGE gel, then transferred to a PVDF membrane. Then this membrane was blocked with 5% non‐fat milk (solved in TBST) for 2.5 h at room temperature. Blots were probed with relevant primary antibodies against FGFR1 (CST), p‐FGFR1 (CST), MAPK (CST), p‐MAPK (CST), FAK (CST), p‐FAK (CST), MMP‐9 (CST), LIN28B (CST), GAPDH (CST), and β‐actin (proteintech) overnight at 4°C, respectively. Then the lanes were detected with HRP‐conjugated secondary antibodies and visualized using WESTAR SUPERNOVA kit (CYANAGEN).

[2] = system: focal adhesion kinase (FAK); test: Immunofluorescence assay of FAK; type: cell-based, human; settings: A549R cells, 5 days, concentration-dependent
Protocol: Performing the immunofluorescence (IF) assay as previously described.[39] Briefly, cells were seeded to slide, fixed with 4% paraformaldehyde, and permeabilized using 0.5% Triton X‐100. Next, cells were incubated with primary antibodies against FAK (CST), followed by incubating with secondary antibodies (DyLight 488‐conjugated anti‐mouse). DAPI was used to stain the nuclear. The fluorescence image was captured by using Nikon Ti microscope and the quantitative analysis was carried out by ImageJ.

A549R xenograft tumours = test: NSCLC A549R xenograft model; type: in vivo, mice
Protocol: A total of 1.0 × 10^6 A549R cells were inoculated subcutaneously into the dorsal flank of the nude mice in 100 µl phosphate‐buffered saline (PBS). Mice were randomly divided into control and C1632 treatment groups (n = 4 per group). Mice were i.p. injected every other day for 18 days (A549R) at a dose of 30 mg/kg in 100 µl PBS per mouse. The tumours were resected, and their size was estimated from the measurements of weight or the longest diameter across the tumour and the corresponding perpendicular diameter.

CC(=O)N(C)c1cccc(-c2ccc3nnc(C)n3n2)c1 [C1632]
expression of FGFR1 and FGFR1 phosphorylation (FGFR1): inhibited
phosphorylation of the downstream kinase MAPK (FGFR1): inhibited
expression of MMP-9 [1]: efficiently decreased
distribution and foci formation of FAK [2]: reduced
body weight of mice (A549R xenograft tumours; 30 mg/kg every 2 days for 18 days): did not affect
growth of xenograft tumour cells (tumour volume over treatment period) (A549R xenograft tumours; 30 mg/kg every 2 days for 18 days, time-dependent): suppressed
tumour size (weight), mean ± SD (A549R xenograft tumours; 30 mg/kg every 2 days, after 18 days, n = 4, untreated 2.35 ± 0.43 g, p < 0.05): 1.36 ± 0.27 g
